One compound from patent publication EP4094762A1, “TREATMENT OF NEUROLOGICAL INDICATIONS” (UCL Business Ltd, priority 2021, dated 2022) can be followed below.

Molecules are shown by their SMILES.

The nature of the experiment: In vivo pharmacodynamic EEG study after oral administration. Also on record: species or system Sprague-Dawley rats. Conditions: rat, 10mg/kg orally. The text has this:
Study to assess in vivo pharmacodynamic activity of BPTU (S1) in the CNS of rats following oral administration.
Pre-surgery: The animals were allowed a minimum period of 7 days acclimatisation on arrival in the facility.
Surgery: Male Sprague-Dawley rats were anaesthetised with isoflurane (2-5% in Oxygen at 11/min) throughout the procedure. The scalp, neck and right flank were cleared of hair using clippers and cleaned using diluted Hibitane (50% (v/v) in water). A non-steroidal anti-inflammatory agent was administered (Carprofen 5mg/kg, s.c.) and the animals placed on a homeothermic blanket (37 °C) with the head fixed in a stereotaxic frame. Incisions were made in the scalp and neck, as well as in the right flank. Blunt dissection of the abdominal muscle was then made to gain access to the peritoneal cavity. A radio transmitter (HD-S02, Data Sciences International) was implanted with the body of the transmitter placed in the peritoneal cavity and secured to the muscle wall with non-absorbable sutures through the body of the transmitter. The wires of the transmitter were passed through the muscle wall and then sub-dermally using a trochar (16G needle) to the scalp to act as EEG/EMG electrodes. The scalp was cleared of connective tissue and two bore holes were made in the skull with a trepanning drill (fronto-parietal coordinates: Bregma +2mm anterior, midline +1.0mm lateral and Lambda 0mm, +1.5mm lateral). The positive EEG electrode was attached to the anterior bore hole and the negative EEG electrode to the posterior bore hole. Both electrodes were secured in place using a suitable adhesive agent (Cyanoacrylate gel, RS components). A second set of electrodes were sutured into the nuchal muscle to act as EMG electrodes. All incisions were closed using absorbable suture. The animals were allowed to recover in a warm environment and given 5ml of saline s.c. The animals were kept singly in the cage until next day, then pair housed for the duration of post-surgical recovery (min 7 days). During the recovery period, the rats received 5 days of standard post-operative care with no further experimental procedures until the pre-operative body weight was regained. The animals were maintained on a 12/12hr light dark cycle after the surgery.
Testing: On study days, the animals were placed in recording boxes individually and EEG/EMG as well as locomotor activity were recorded for 0.5 h before and 24 h after each dosing. […]
The subsequent EEG/EMG recordings were automatically scored (see Table below for sleep stage definitions) as wake, non-REM (NREM) sleep, or REM sleep in 10 second epochs using SleepSign (Kissei Comtec, Japan).
Power spectral analysis was performed on EEG data recorded over the first 3 h. […]

Consider `CC(C)(C)c1ccccc1Oc1ncccc1NC(=O)Nc1ccc(OC(F)(F)F)cc1` [BPTU, 1-(2-(2-(tert-butyl)phenoxy)pyridin-3-yl)-3-(4-(trifluoromethoxy)phenyl)urea], for which, for the setting “during non-REM sleep”, the “EEG power, delta band” value is recorded as “Significant increases” and the “EEG power, theta band” value is on record as “Significant increases”. The “EEG power, gamma frequency band” value (during wake) is reported as “Significant increases”. For the same compound, the “changes in the EEG power spectrum” value (first three hours post dosing) is “significant changes”.
